Consider 4 molecules from ChEMBL document CHEMBL5050860, “Substrate selective hsd17b13 inhibitors and uses thereof” (2021).

For assay [1], the species on record is Homo sapiens. As to the kind of experiment: Ratio of Ki for inhibition of His-tagged HSD17B13 (unknown origin) using LTB3 as substrate to Ki for His-tagged HSD17B13 (unknown origin) using estradiol as substrate.
Assay [2] is described as follows: Inhibition of His-tagged HSD17B13 (unknown origin) using estradiol as substrate incubated for 2 hrs and measured by LC-MS/MS analysis. Also noted: species or system Homo sapiens.
A short description of assay [3]: Inhibition of His-tagged HSD17B13 (unknown origin) using LTB3 as substrate incubated for 1 hr and measured after 1 hr by fluorescence based assay. On the set-up: species or system Homo sapiens.

As usually defined, the Ki is a measure of affinity in units of concentration, obtained from inhibition or displacement. Higher therefore signals lower affinity. Take `Oc1cccc(-c2nccc3cc(O)ccc23)c1`: the Ratio Ki in assay [1] was more than 3.5. Moreover, the Ki was 8.55 µM in assay [2] and more than 30 µM in assay [3].

`CCOC(=O)c1cccc(-n2c(-c3ccncc3)nc3cc(OC)ccc32)c1`: the Ratio Ki in assay [1] was less than 0.091. Besides, the inhibitory constant (Ki) in assay [2] was more than 30 µM; in assay [3], 2.72 µM.

For the molecule `O=C1c2ccc(O)cc2C(=O)c2ccc(O)cc21` [ANTHRAFLAVICACID], in assay [1], the Ratio Ki worked out at 8.8. Also, the values for the Ki in assay [2] and in assay [3] were 0.32 µM and 2.81 µM, respectively.

Regarding `Cc1cc(-c2ccc(-c3cccc(O)c3)s2)ccc1O`, the Ratio Ki in assay [1] was found to be 0.14. Besides, the Ki in assay [2] was determined as 7.58 µM; in assay [3] it was 1.07 µM.
